# Assays:
# Assay in all cases: relative viability (nuclei count vs DMSO), 5 days (fraction); higher = more cells survive
# BEN = test system: BEN
# Outline: (§1)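 Lung cancer cell lines, seeded in 1536-well plates, were treated the following day by pin tool with a single drug or with five library-drug doses (not always all listed) in √10 steps on top of a fixed anchor-drug dose. Cells were fixed and nuclei stained in one step after 5 days, and nuclei were counted. Relative viability is the nuclei count for treated wells divided by that for vehicle wells, reported as medians of duplicate plates.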
# NCI-H1666 = test system: NCI-H1666
# Outline: as §1
# ChaGo-K-1 = test system: ChaGo-K-1
# Outline: as §1
# NCI-H838 = test system: NCI-H838
# Outline: as §1
# NCI-H650 = test system: NCI-H650
# Outline: as §1
# UMC-11 = test system: UMC-11
# Outline: as §1
# NCI-H661 = test system: NCI-H661
# Outline: as §1
# LXF-289 = test system: LXF-289
# Outline: as §1
# NCI-H1651 = test system: NCI-H1651
# Outline: as §1
# PC-3 [JPC-3] = test system: PC-3 [JPC-3]
# Outline: as §1
# LC-2-ad = test system: LC-2-ad
# Outline: as §1
# LU99A = test system: LU99A
# Outline: as §1
# LCLC-97TM1 = test system: LCLC-97TM1
# Outline: as §1
# NCI-H322M = test system: NCI-H322M
# Outline: as §1
# NCI-H596 = test system: NCI-H596
# Outline: as §1
# NCI-H2087 = test system: NCI-H2087
# Outline: as §1
# HCC-15 = test system: HCC-15
# Outline: as §1
# HCC-78 = test system: HCC-78
# Outline: as §1
compound,measurement,setting,value
O=C(O)c1ccc(-c2c[nH]c3ncc(-c4ccccc4)cc23)cc1C1CCCC1 + CC(C)C[C@H](NC(=O)[C@H](Cc1ccccc1)NC(=O)c1cnccn1)B(O)O [Bortezomib] (partner 0.002 µM),relative viability,BEN; first compound 0.04 µM,0.721
same,relative viability,BEN; first compound 0.1265 µM,0.778
same,relative viability,BEN; first compound 0.4 µM,0.907
same,relative viability,BEN; first compound 1.265 µM,0.796
same,relative viability,NCI-H1666; first compound 0.04 µM,0.86
same,relative viability,NCI-H1666; first compound 0.1265 µM,0.813
same,relative viability,NCI-H1666; first compound 0.4 µM,0.739
same,relative viability,NCI-H1666; first compound 1.265 µM,0.304
same,relative viability,ChaGo-K-1; first compound 0.04 µM,1.08
same,relative viability,ChaGo-K-1; first compound 0.1265 µM,1.16
same,relative viability,ChaGo-K-1; first compound 0.4 µM,0.917
same,relative viability,ChaGo-K-1; first compound 1.265 µM,1.21
same,relative viability,NCI-H838; first compound 0.04 µM,0.814
same,relative viability,NCI-H838; first compound 0.1265 µM,1.32
same,relative viability,NCI-H838; first compound 0.4 µM,0.703
same,relative viability,NCI-H838; first compound 1.265 µM,0.714
same,relative viability,NCI-H650; first compound 0.04 µM,0.746
same,relative viability,NCI-H650; first compound 0.1265 µM,0.895
same,relative viability,NCI-H650; first compound 0.4 µM,0.858
same,relative viability,NCI-H650; first compound 1.265 µM,0.5
same,relative viability,UMC-11; first compound 0.04 µM,0.747
same,relative viability,UMC-11; first compound 0.1265 µM,0.764
same,relative viability,UMC-11; first compound 0.4 µM,0.666
same,relative viability,UMC-11; first compound 1.265 µM,0.519
same,relative viability,NCI-H661; first compound 0.04 µM,0.72
same,relative viability,NCI-H661; first compound 0.1265 µM,0.791
same,relative viability,NCI-H661; first compound 0.4 µM,0.82
same,relative viability,NCI-H661; first compound 1.265 µM,0.935
same,relative viability,LXF-289; first compound 0.04 µM,0.969
same,relative viability,LXF-289; first compound 0.1265 µM,0.944
same,relative viability,LXF-289; first compound 0.4 µM,0.8
same,relative viability,LXF-289; first compound 1.265 µM,0.568
same,relative viability,NCI-H1651; first compound 0.04 µM,0.879
same,relative viability,NCI-H1651; first compound 0.1265 µM,0.984
same,relative viability,NCI-H1651; first compound 0.4 µM,0.983
same,relative viability,NCI-H1651; first compound 1.265 µM,0.855
same,relative viability,PC-3 [JPC-3]; first compound 0.04 µM,0.832
same,relative viability,PC-3 [JPC-3]; first compound 0.1265 µM,0.921
same,relative viability,PC-3 [JPC-3]; first compound 0.4 µM,0.9
same,relative viability,PC-3 [JPC-3]; first compound 1.265 µM,0.759
same,relative viability,LC-2-ad; first compound 0.04 µM,1.04
same,relative viability,LC-2-ad; first compound 0.1265 µM,1.1
same,relative viability,LC-2-ad; first compound 0.4 µM,1.02
same,relative viability,LC-2-ad; first compound 1.265 µM,0.779
same,relative viability,LU99A; first compound 0.04 µM,1.19
same,relative viability,LU99A; first compound 0.1265 µM,1.08
same,relative viability,LU99A; first compound 0.4 µM,1.06
same,relative viability,LU99A; first compound 1.265 µM,0.816
same,relative viability,LCLC-97TM1; first compound 0.04 µM,0.835
same,relative viability,LCLC-97TM1; first compound 0.1265 µM,1.03
same,relative viability,LCLC-97TM1; first compound 0.4 µM,0.763
same,relative viability,LCLC-97TM1; first compound 1.265 µM,0.403
same,relative viability,NCI-H322M; first compound 0.04 µM,1.25
same,relative viability,NCI-H322M; first compound 0.1265 µM,1.32
same,relative viability,NCI-H322M; first compound 0.4 µM,1.33
same,relative viability,NCI-H322M; first compound 1.265 µM,1.23
same,relative viability,NCI-H596; first compound 0.04 µM,0.935
same,relative viability,NCI-H596; first compound 0.1265 µM,0.982
same,relative viability,NCI-H596; first compound 0.4 µM,1.02
same,relative viability,NCI-H596; first compound 1.265 µM,1.06
same,relative viability,NCI-H2087; first compound 0.04 µM,0.963
same,relative viability,NCI-H2087; first compound 0.1265 µM,0.902
same,relative viability,NCI-H2087; first compound 0.4 µM,0.715
same,relative viability,NCI-H2087; first compound 1.265 µM,0.565
same,relative viability,HCC-15; first compound 0.04 µM,0.985
same,relative viability,HCC-15; first compound 0.1265 µM,1.05
same,relative viability,HCC-15; first compound 0.4 µM,1.08
same,relative viability,HCC-15; first compound 1.265 µM,0.731
same,relative viability,HCC-78; first compound 0.04 µM,0.477
same,relative viability,HCC-78; first compound 0.1265 µM,0.473
same,relative viability,HCC-78; first compound 0.4 µM,0.436
same,relative viability,HCC-78; first compound 1.265 µM,0.495
NC(=O)Nc1cc(-c2cccc(F)c2)sc1C(=O)N[C@H]1CCCNC1 [AZD7762] + CC(C)C[C@H](NC(=O)[C@H](Cc1ccccc1)NC(=O)c1cnccn1)B(O)O [Bortezomib] (partner 0.002 µM),relative viability,BEN; first compound 0.01 µM,0.902
same,relative viability,BEN; first compound 0.03162 µM,0.758
same,relative viability,BEN; first compound 0.1 µM,0.888
same,relative viability,BEN; first compound 0.3162 µM,0.821
same,relative viability,BEN; first compound 1 µM,0.636
same,relative viability,NCI-H1666; first compound 0.01 µM,0.906
same,relative viability,NCI-H1666; first compound 0.03162 µM,0.906
same,relative viability,NCI-H1666; first compound 0.1 µM,1.13
same,relative viability,NCI-H1666; first compound 0.3162 µM,0.848
same,relative viability,NCI-H1666; first compound 1 µM,0.688
same,relative viability,ChaGo-K-1; first compound 0.01 µM,0.861
same,relative viability,ChaGo-K-1; first compound 0.03162 µM,1.01
same,relative viability,ChaGo-K-1; first compound 0.1 µM,0.961
same,relative viability,ChaGo-K-1; first compound 0.3162 µM,0.958
same,relative viability,ChaGo-K-1; first compound 1 µM,0.865
same,relative viability,NCI-H838; first compound 0.01 µM,0.773
same,relative viability,NCI-H838; first compound 0.03162 µM,0.814
same,relative viability,NCI-H838; first compound 0.1 µM,0.715
same,relative viability,NCI-H838; first compound 0.3162 µM,0.724
same,relative viability,NCI-H838; first compound 1 µM,0.303
same,relative viability,NCI-H650; first compound 0.01 µM,0.851
same,relative viability,NCI-H650; first compound 0.03162 µM,0.892
same,relative viability,NCI-H650; first compound 0.1 µM,0.772
same,relative viability,NCI-H650; first compound 0.3162 µM,0.687
same,relative viability,NCI-H650; first compound 1 µM,0.767
same,relative viability,UMC-11; first compound 0.01 µM,0.692
same,relative viability,UMC-11; first compound 0.03162 µM,0.585
same,relative viability,UMC-11; first compound 0.1 µM,0.409
same,relative viability,UMC-11; first compound 0.3162 µM,0.632
same,relative viability,UMC-11; first compound 1 µM,0.435
same,relative viability,NCI-H661; first compound 0.01 µM,0.828
same,relative viability,NCI-H661; first compound 0.03162 µM,0.938
same,relative viability,NCI-H661; first compound 0.1 µM,0.766
same,relative viability,NCI-H661; first compound 0.3162 µM,0.681
same,relative viability,NCI-H661; first compound 1 µM,0.382
same,relative viability,LXF-289; first compound 0.01 µM,0.918
same,relative viability,LXF-289; first compound 0.03162 µM,0.947
same,relative viability,LXF-289; first compound 0.1 µM,1.07
same,relative viability,LXF-289; first compound 0.3162 µM,1
same,relative viability,LXF-289; first compound 1 µM,1.12
same,relative viability,NCI-H1651; first compound 0.01 µM,0.945
same,relative viability,NCI-H1651; first compound 0.03162 µM,0.932
same,relative viability,NCI-H1651; first compound 0.1 µM,1.01
same,relative viability,NCI-H1651; first compound 0.3162 µM,0.963
same,relative viability,NCI-H1651; first compound 1 µM,0.686
same,relative viability,PC-3 [JPC-3]; first compound 0.01 µM,0.886
same,relative viability,PC-3 [JPC-3]; first compound 0.03162 µM,0.88
same,relative viability,PC-3 [JPC-3]; first compound 0.1 µM,0.829
same,relative viability,PC-3 [JPC-3]; first compound 0.3162 µM,0.883
same,relative viability,PC-3 [JPC-3]; first compound 1 µM,0.785
same,relative viability,LC-2-ad; first compound 0.01 µM,1.04
same,relative viability,LC-2-ad; first compound 0.03162 µM,1.14
same,relative viability,LC-2-ad; first compound 0.1 µM,0.975
same,relative viability,LC-2-ad; first compound 0.3162 µM,0.909
same,relative viability,LC-2-ad; first compound 1 µM,0.732
same,relative viability,LU99A; first compound 0.01 µM,1.09
same,relative viability,LU99A; first compound 0.03162 µM,1.24
same,relative viability,LU99A; first compound 0.1 µM,1.25
same,relative viability,LU99A; first compound 0.3162 µM,0.867
same,relative viability,LU99A; first compound 1 µM,0.402
same,relative viability,LCLC-97TM1; first compound 0.01 µM,0.767
same,relative viability,LCLC-97TM1; first compound 0.03162 µM,0.822
same,relative viability,LCLC-97TM1; first compound 0.1 µM,0.737
same,relative viability,LCLC-97TM1; first compound 0.3162 µM,0.335
same,relative viability,LCLC-97TM1; first compound 1 µM,0.634
same,relative viability,NCI-H322M; first compound 0.01 µM,1.09
same,relative viability,NCI-H322M; first compound 0.03162 µM,1.26
same,relative viability,NCI-H322M; first compound 0.1 µM,1.36
same,relative viability,NCI-H322M; first compound 0.3162 µM,1.39
same,relative viability,NCI-H322M; first compound 1 µM,1.33
same,relative viability,NCI-H596; first compound 0.01 µM,1.02
same,relative viability,NCI-H596; first compound 0.03162 µM,0.896
same,relative viability,NCI-H596; first compound 0.1 µM,1.13
same,relative viability,NCI-H596; first compound 0.3162 µM,1.2
same,relative viability,NCI-H596; first compound 1 µM,1.03
same,relative viability,NCI-H2087; first compound 0.01 µM,0.88
same,relative viability,NCI-H2087; first compound 0.03162 µM,0.851
same,relative viability,NCI-H2087; first compound 0.1 µM,0.792
same,relative viability,NCI-H2087; first compound 0.3162 µM,0.972
same,relative viability,NCI-H2087; first compound 1 µM,1.01
same,relative viability,HCC-15; first compound 0.01 µM,1.01
same,relative viability,HCC-15; first compound 0.03162 µM,0.95
same,relative viability,HCC-15; first compound 0.1 µM,0.898
same,relative viability,HCC-15; first compound 0.3162 µM,0.937
same,relative viability,HCC-15; first compound 1 µM,0.986
same,relative viability,HCC-78; first compound 0.01 µM,0.561
same,relative viability,HCC-78; first compound 0.03162 µM,0.528
same,relative viability,HCC-78; first compound 0.1 µM,0.526
same,relative viability,HCC-78; first compound 0.3162 µM,0.62
same,relative viability,HCC-78; first compound 1 µM,0.391

# From the supplement of paper PMC10307832
